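Test compounds were applied to cells in 96-well plates for 48 hours at 5 doses. GI50 is the concentration that inhibits growth by half.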 Calls of active or inactive are those of the source. Cut-off read from the data, not from the text of the source: active = GI50 up to about 1.1 µM and inactive = higher.
Legend:
Experiment in all cases: NCI tumour cell line growth inhibition, 48 h
HT-29 = system: HT-29
LOX IMVI = system: LOX IMVI
NCI-H226 = system: NCI-H226
OVCAR-3 = system: OVCAR-3
HCC 2998 = system: HCC 2998
SK-MEL-5 = system: SK-MEL-5
HCT-116 = system: HCT-116
HCT-15 = system: HCT-15
T47D = system: T47D
NCI-H522 = system: NCI-H522
MDA-N = system: MDA-N
MDA-MB-231 = system: MDA-MB-231
UACC-257 = system: UACC-257
SF-295 = system: SF-295
MCF7 = system: MCF7
SF-268 = system: SF-268
A498 = system: A498
Hs-578T = system: Hs-578T
NCI-H460 = system: NCI-H460
SNB-78 = system: SNB-78

Compound: O=C(/C=C/c1ccc(-c2ccccc2)cc1)NCc1ccc(C(=O)NCCc2c[nH]c3ccccc23)cc1
- GI50 (HT-29): 11.5 µM (inactive)
- GI50 (LOX IMVI): 48.9 µM (inactive)
- GI50 (NCI-H226): 24.4 µM (inactive)
- GI50 (OVCAR-3): 28.9 µM (inactive)
- GI50 (HCC 2998): 83.4 µM (inactive)
- GI50 (SK-MEL-5): 26 µM (inactive)
- GI50 (HCT-116): 46.9 µM (inactive)
- GI50 (HCT-15): > 100 µM
- GI50 (T47D): 22 µM (inactive)
- GI50 (NCI-H522): 21.3 µM (inactive)
- GI50 (MDA-N): 49.2 µM (inactive)
- GI50 (MDA-MB-231): 14.6 µM (inactive)
- GI50 (UACC-257): 67.3 µM (inactive)
- GI50 (SF-295): 11.1 µM (inactive)
- GI50 (MCF7): 89.9 µM (inactive)
- GI50 (SF-268): 39.7 µM (inactive)
- GI50 (A498): 32.8 µM (inactive)
- GI50 (Hs-578T): 38.5 µM (inactive)
- GI50 (NCI-H460): 31.7 µM (inactive)

Compound: O=[N+]([O-])c1nccn1COCCF
- GI50 (HT-29): > 100 µM (inactive)
- GI50 (LOX IMVI): > 100 µM (inactive)
- GI50 (NCI-H226): > 100 µM (inactive)
- GI50 (OVCAR-3): > 100 µM (inactive)
- GI50 (SK-MEL-5): > 100 µM (inactive)
- GI50 (HCT-116): > 100 µM (inactive)
- GI50 (HCT-15): > 100 µM
- GI50 (NCI-H522): > 100 µM (inactive)
- GI50 (UACC-257): > 100 µM (inactive)
- GI50 (SF-295): > 100 µM (inactive)
- GI50 (SNB-78): > 100 µM (inactive)
- GI50 (SF-268): > 100 µM (inactive)
- GI50 (NCI-H460): > 100 µM (inactive)

Compound: CCCCCOc1ccc(NC2=C(Cl)C(=O)c3c(O)ccc(O)c3C2=O)cc1
- GI50 (HT-29): 4.75 µM (inactive)
- GI50 (LOX IMVI): 1.79 µM (inactive)
- GI50 (NCI-H226): > 10 µM (inactive)
- GI50 (OVCAR-3): 4.2 µM (inactive)
- GI50 (HCC 2998): 2.65 µM (inactive)
- GI50 (SK-MEL-5): 5.43 µM (inactive)
- GI50 (HCT-116): 2.88 µM (inactive)
- GI50 (HCT-15): 2.02 µM
- GI50 (T47D): 2.76 µM (inactive)
- GI50 (NCI-H522): 2.55 µM (inactive)
- GI50 (MDA-N): 3.03 µM (inactive)
- GI50 (MDA-MB-231): 3.35 µM (inactive)
- GI50 (UACC-257): 6.15 µM (inactive)
- GI50 (SF-295): > 10 µM (inactive)
- GI50 (MCF7): 1.33 µM (inactive)
- GI50 (SF-268): > 10 µM (inactive)
- GI50 (A498): > 10 µM (inactive)
- GI50 (Hs-578T): 1.91 µM (inactive)
- GI50 (NCI-H460): 4.13 µM (inactive)

Compound: CC(C)=CCc1c2c(c(O)c3c(=O)c4c(oc13)-c1ccc(O)cc1OC4C=C(C)C)C=CC(C)(C)O2 (stereo not drawn)
- GI50 (HT-29): 13 µM (inactive)
- GI50 (LOX IMVI): 8.61 µM (inactive)
- GI50 (NCI-H226): 21.9 µM (inactive)
- GI50 (OVCAR-3): 12.3 µM (inactive)
- GI50 (HCC 2998): 3.34 µM (inactive)
- GI50 (SK-MEL-5): 14.8 µM (inactive)
- GI50 (HCT-116): 8.45 µM (inactive)
- GI50 (HCT-15): 7.5 µM
- GI50 (T47D): 8.79 µM (inactive)
- GI50 (NCI-H522): 12.4 µM (inactive)
- GI50 (MDA-N): 13.2 µM (inactive)
- GI50 (MDA-MB-231): 14.2 µM (inactive)
- GI50 (UACC-257): 15.4 µM (inactive)
- GI50 (SF-295): 14.6 µM (inactive)
- GI50 (MCF7): 13.5 µM (inactive)
- GI50 (SF-268): 14.2 µM (inactive)
- GI50 (A498): 19.5 µM (inactive)
- GI50 (Hs-578T): 2.37 µM (inactive)
- GI50 (NCI-H460): 13.7 µM (inactive)

Compound: CSc1nc(=O)n(CCC#N)nc1SC
- GI50 (HT-29): 51.6 µM (inactive)
- GI50 (LOX IMVI): 19.5 µM (inactive)
- GI50 (NCI-H226): 39.3 µM (inactive)
- GI50 (OVCAR-3): 16.1 µM (inactive)
- GI50 (HCC 2998): 15 µM (inactive)
- GI50 (SK-MEL-5): 19.1 µM (inactive)
- GI50 (HCT-116): 16.5 µM (inactive)
- GI50 (HCT-15): 21.9 µM
- GI50 (T47D): 24.3 µM (inactive)
- GI50 (NCI-H522): 25.6 µM (inactive)
- GI50 (MDA-N): 20.4 µM (inactive)
- GI50 (MDA-MB-231): 19.2 µM (inactive)
- GI50 (UACC-257): > 10 µM (inactive)
- GI50 (SF-295): > 100 µM (inactive)
- GI50 (MCF7): 2.72 µM (inactive)
- GI50 (SF-268): 27.9 µM (inactive)
- GI50 (A498): > 100 µM (inactive)
- GI50 (Hs-578T): 27.6 µM (inactive)
- GI50 (NCI-H460): > 100 µM (inactive)

Compound: Nc1nc(Cl)cc(NC2(CO)CCC2)n1
- GI50 (HT-29): > 100 µM (inactive)
- GI50 (LOX IMVI): > 100 µM (inactive)
- GI50 (NCI-H226): > 100 µM (inactive)
- GI50 (OVCAR-3): > 100 µM (inactive)
- GI50 (HCC 2998): > 100 µM (inactive)
- GI50 (SK-MEL-5): > 100 µM (inactive)
- GI50 (HCT-116): > 100 µM (inactive)
- GI50 (HCT-15): > 100 µM
- GI50 (T47D): > 100 µM (inactive)
- GI50 (NCI-H522): > 100 µM (inactive)
- GI50 (MDA-N): > 100 µM (inactive)
- GI50 (MDA-MB-231): > 100 µM (inactive)
- GI50 (UACC-257): > 100 µM (inactive)
- GI50 (SF-295): > 100 µM (inactive)
- GI50 (MCF7): > 100 µM (inactive)
- GI50 (SF-268): > 100 µM (inactive)
- GI50 (A498): > 100 µM (inactive)
- GI50 (Hs-578T): > 100 µM (inactive)
- GI50 (NCI-H460): > 100 µM (inactive)
